# Source: patent publication EP3981864A1, “DETERGENT COMPOSITION” (priority 2020, dated 2022)
# How the values were obtained:
# [1] = system: Gossypium raimondii αDOX (SEQ ID NO: 5), fatty acid alpha-dioxygenase, A0A0D2W0W0, N-terminal His-tag variant SEQ ID NO: 257; assay: Alpha-dioxygenase activity assay (oxygen consumption, TON); format: biochemical; conditions: fatty acid 100 µM, enzyme 6 ppm, 50 mM HEPES pH 9.0, 37°C; initial rate of oxygen consumption / enzyme concentration
# Text: Gossypium raimondii αDOX (SEQ ID NO: 5) is a fatty acid alpha-dioxygenase that converts fatty acids into the corresponding 2-hydroperoxy fatty acids and is included as an example of the present invention. A codon optimized gene (SEQ ID NO: 256) encoding for an alpha-dioxygenase variant (SEQ ID NO: 257), including an N-terminal amino acid sequence containing a His-tag was designed and synthesized by Genscript. After gene synthesis, the protein was expressed and purified. In brief, the complete synthetic gene sequence was subcloned into a pET30a vector using the NdeI/HindIII cloning sites. For heterologous expression, Escherichia coli BL21 (DE3) cells were transformed with the recombinant plasmid and a single colony was inoculated into LB medium containing kanamycin (50 mg/L). A pre-starter culture was then inoculated into flasks containing Magic Media (Thermo Fisher, Catalog # K6803) supplemented with kanamycin (50 mg/L) and incubated at 16 °C for 72 h. At an OD600nm = 0.5 - 1.0, 5-aminolevulinic acid (final concentration 0.5 mM) was added. Cells were harvested by centrifugation at 5000 rpm and 4°C and the pellet was lysed using a bacterial cell lysis buffer (B-PER - Themo Fisher, Waltham, MA). After centrifugation, the supernatant was collected, and the protein was purified by one-step purification using HisPur™ Ni-NTA Spin Columns (Thermo Scientific, Catalog # 88226) and standard protocols known in the art. The protein was concentrated using a 10 kDa MW cutoff Amicon Ultra centrifugal filter unit (Millipore Sigma, Catalog# UFC901024), followed by desalting using a disposable PD-10 desalting column (GE Healthcare Life Sciences, Catalog# 17085101) and a buffer containing 50 mM Tris-HCl, 500 mM NaCl, and 10% Glycerol at pH 8.0. […]
# (§1) Reactions with alpha-dioxygenases were performed as follows. […] The reaction was incubated for up to 10 minutes at 37°C with 200 rpm agitation and the conversion was monitored using an oxygen sensor. The TON (in s-1) were calculated as the ratio between the initial rate of oxygen consumption (in µM/s) and the concentration of enzyme (in µM). […]
# [2] = system: Mycolicibacterium fortuitum αDOX (SEQ ID NO: 7), fatty acid alpha-dioxygenase, K0VMX8, N-terminal His-tag variant SEQ ID NO: 261; assay: as above; format: biochemical; conditions: fatty acid 100 µM, enzyme 6 ppm, 50 mM HEPES pH 9.0, 37°C; initial rate of oxygen consumption / enzyme concentration
# Text: Mycolicibacterium fortuitum αDOX (SEQ ID NO: 7) is a fatty acid alpha-dioxygenase that converts fatty acids into the corresponding 2-hydroperoxy fatty acids and is included as an example of the present invention. A codon optimized gene (SEQ ID NO: 260) encoding for an alpha-dioxygenase variant (SEQ ID NO: 261), including an N-terminal amino acid sequence containing a His-tag was designed and synthesized by Genscript. After gene synthesis, the protein was expressed and purified. In brief, the complete synthetic gene sequence was subcloned into a pET30a vector using the NdeI/HindIII cloning sites. For heterologous expression, Escherichia coli BL21 (DE3) cells were transformed with the recombinant plasmid and a single colony was inoculated into LB medium containing kanamycin (50 mg/L). A pre-starter culture was then inoculated into flasks containing Magic Media (Thermo Fisher, Catalog # K6803) supplemented with kanamycin (50 mg/L) and incubated at 16 °C for 72 h. At an OD600nm = 0.5 - 1.0, 5-aminolevulinic acid (final concentration 0.5 mM) was added. Cells were harvested by centrifugation at 5000 rpm and 4°C and the pellet was lysed using a bacterial cell lysis buffer (B-PER - Themo Fisher, Waltham, MA). After centrifugation, the supernatant was collected, and the protein was purified by one-step purification using HisPur™ Ni-NTA Spin Columns (Thermo Scientific, Catalog # 88226) and standard protocols known in the art. The protein was concentrated using a 10 kDa MW cutoff Amicon Ultra centrifugal filter unit (Millipore Sigma, Catalog# UFC901024), followed by desalting using a disposable PD-10 […], 500 mM NaCl, and 10% Glycerol at pH 8.0. The purified enzyme was stored at -80 °C until use.
# as §1
smiles,measurement,setting,value
CCCCCCCC/C=C\CCCCCCCC(=O)O [Oleic Acid],"Oleic Acid, TON",[1],1.68 s⁻¹
same,"Oleic Acid, TON",[2],0.00 s⁻¹
CCCCCCCCCCCCCCCC(=O)O [Palmitic Acid],"Palmitic Acid, TON",[1],2.56 s⁻¹
same,"Palmitic Acid, TON",[2],0.00 s⁻¹
CCCCCCCCCCCCCCCCCC(=O)O [Stearic Acid],"Stearic Acid, TON",[1],1.68 s⁻¹
same,"Stearic Acid, TON",[2],1.66 s⁻¹
